Source: patent US20250152504A1, “INTRAUTERINE SYSTEMS COMPRISING ANTI-INFECTIVES FOR STEADY-STATE ACCUMULATION TO DISTAL EXTRAUTERINE TISSUE” (priority 2023, published 2025)
Read-outs that look alike come from different tables or passages of the source.

Key:
[1] = In vitro drug release from TPU matrix delivery system prototypes; assay type: physicochemical; conditions: for cumulative release of loaded drug: after 30 days
Experimental: Films were cut into disks with a 1-inch diameter die punch; disks were stacked and placed between two pieces of aluminum foil and compressed under a metal weight on a 120° C. dry bath. Thickness was monitored frequently until it measured 3.5 mm with digital calipers calibrated to 0.01 mm. Devices were cut from thick films using a custom rectangular 3.5 mm×13.3 mm die punch.
(§1) All release tests were performed in sink conditions in PBS supplemented with 2% w/v Cremophor® A25/Emulgin® B25. For the first 7-days of drug release testing, 1 mL samples were taken daily; following 7 days, samples were taken every 3-4 days. At all timepoints, bottles were drained and replaced with fresh media following sampling.
A qualification for selecting an optimal TPU for DPV delivery in this application is the time to achieve 50% cumulative release of drug. This is based on the standard use time of hormonal IUDs, which in practice are removed once about half of the initial load of drug is depleted from the device. Here, this standard was used as a benchmark to evaluate the sustained release properties of candidate delivery system designs. […] The fit of first-order release kinetics to the data was assessed. Equations 1 and 2 describe drug release from a system where dissolution is dependent on a concentration gradient.
Where k is the first order rate constant, Ct is the concentration of drug in solution at time t and C0 is the initial concentration of drug.
Where Q is the amount of drug release in time t and kh is the Higuchi release constant.
Based on the best-fit square-root of time relation, T50% was calculated for each TPU. […] Korsmeyer and Peppas provided a method for understanding drug release mechanisms of swelling and non-swelling polymeric systems, given by Equation 4: […]
Where Mt/M∝ is the fraction of drug released at time t, K is the rate constant, and n is the release exponent.

[2] = In vitro drug release from core-sheath reservoir delivery system prototypes; assay type: physicochemical; conditions: 6 core-sheath reservoir prototypes, core TPU loaded at 1 wt %, three sheath polymers, 100 and 200 μm sheath thickness
Experimental: Reservoir delivery system prototypes were prepared using a heated coextrusion process. Briefly, core polymer (PY-PT43DE20) was melted and homogenized with the appropriate mass of dapivirine to achieve 1 wt % and 30 wt % core polymer loading. […] The inner crosshead diameter was varied mid-extrusion to generate devices with sheath thicknesses ranging from 100-200 μm while retaining a constant outer diameter. Material was cut to the desired length per device (13.33 mm) and in-spec devices were identified based on sheath thickness using brightfield microscopy. Devices were incubated for two weeks at 40° C. to equilibrate drug in the core and sheath compartments.
as §1, with “sampling. For reservoir delivery system prototypes, three replicates of each formulation were end capped and one device was tested with no end cap to confirm the integrity of the end cap in preventing uncontrolled diffusion form the exposed core.” for “sampling.”
Both polyether sheath reservoirs (R1 & R2) released DPV faster than polycarbonate sheath reservoirs (R3 & R4). […]

[3] = Triple active compound (RAL, MVC, ETR) intrauterine system in vivo study, tissue and secretion concentrations; conditions: for concentration at 28 days: 28 days after insertion
Description: Described herein is a study conducted on an intrauterine system having a plurality of delivery systems (such as shown in FIGS. 1D and 1E). This study included three matrix delivery systems. The first delivery system included raltegravir (RAL), the second delivery system included etravirine (ETR), and the third delivery system included maraviroc (MVC). The intrauterine system was implanted and retained in the uterus of a patient for 28 days.
Multiple samples were taken before, during, and after insertion of the intrauterine system. Plasma samples were taken an hour before insertion, at insertion, 24 hours after insertion, 48 hours after insertion, 72 hours after insertion, 7 days after insertion, 14 days after insertion, 21 days after insertion, and 28 days after insertion (when the intrauterine system was removed). Vaginal swabs were taken an hour before insertion, at 7 days after insertion, 14 days after insertion, 21 days after insertion, and 28 days after insertion. Vaginal biopsies were taken an hour before insertion, 7 days after insertion, and 28 days after insertion. Endometrial and cervical biopsies were taken an hour before insertion and 28 days after insertion. Histology was also performed an hour before insertion, and consistent visual inspection was done throughout for safety.

[4] = Post-use assay of residual ARVs in removed IUDs (triple study); assay type: in vivo; conditions: for Average dose / Total DPV released: 28 days
Description: FIGS. 15A-15C are graphs showing post-use assays of residual anti-retroviral pharmaceutical compositions in removed intrauterine devices, in accordance with the present technology. […]

[5] = 20 wt % matrix, hydrophobic and crystalline TPU, after 20 days
[6] = 1 wt % loading, TPU2 matrix, from best-fit release model
[7] = 1 wt % loading, TPU3 matrix, from best-fit release model
[8] = 1 wt % loading, TPU4 matrix, from best-fit release model
[9] = 1 wt %, TPU4 matrix, total by 30 days
[10] = 16.6 wt % loading, TPU4 matrix, from best-fit release model
[11] = 16.6 wt %, TPU4 matrix, final rate at 30 days, per each ⅓ segment of the device

Row | SMILES | Actual T50% ([1]; 1 wt % loading, TPU2 matrix) | First-Order: k ([1]; 1 wt % loading, TPU2 matrix) | Higuchi: kH ([1]; 1 wt % loading, TPU2 matrix) | Predicted T50% [1, 6] | Actual T50% ([1]; 1 wt % loading, TPU3 matrix) | First-Order: k ([1]; 1 wt % loading, TPU3 matrix) | Higuchi: kH ([1]; 1 wt % loading, TPU3 matrix) | Korsmeyer-Peppas Constant: n ([1]; 1 wt % loading, TPU3 matrix) | Predicted T50% [1, 7] | First-Order: k ([1]; 1 wt % loading, TPU4 matrix) | Higuchi: kH ([1]; 1 wt % loading, TPU4 matrix) | Korsmeyer-Peppas Constant: n ([1]; 1 wt % loading, TPU4 matrix) | Predicted T50% [1, 8] | cumulative release [1, 9] | First-Order: k ([1]; 16.6 wt % loading, TPU4 matrix) | Higuchi: kH ([1]; 16.6 wt % loading, TPU4 matrix) | Korsmeyer-Peppas Constant: n ([1]; 16.6 wt % loading, TPU4 matrix) | Predicted T50% [1, 10] | cumulative release of loaded drug ([1]; 16.6 wt %, TPU4 matrix) | release rate [1, 11] | further results
1 | Cc1nc(N(C)C(=O)Cc2ccc(-c3ccccn3)cc2)sc1S(N)(=O)=O [PTV, pritelivir] |  |  |  |  |  |  |  |  |  |  |  |  |  |  |  |  |  |  |  |  | time for half of the original dose to release ([1]; 20 wt % matrix, Higuchi release kinetic analysis): approximately 500 days; cumulative release [1, 5]: approximately 9%; release rate [1, 5]: 30 µg/day; duration of use of the device ([1]; matrix device loaded with 20-30 mg of PTV, tested in vitro for 480 hours): 3-4 years; daily release [2]: 1 to 40 µg/day
2 | Cc1nnc(C(=O)NC(C)(C)c2nc(C(=O)NCc3ccc(F)cc3)c(O)c(=O)n2C)o1 [RAL, raltegravir] | <1 days | 0.016, h^−1 | 0.052, %/h^1/2 | 2 days | 1 days | 0.004, h^−1 | 0.023, %/h^1/2 | 0.201, | 7 days | 0.0004, h^−1 | 0.010, %/h^1/2 | 0.333, | 109 days | 31.71% | 0.0002, h^−1 | 0.006, %/h^1/2 | 0.455, | 251 days | approximately 18% | around 22 μg/day | concentration at 7 days ([3]; female, human, in vivo, 7 days after insertion, read-out: tissue concentration, Vagina): 194 ng/mL; concentration at 28 days ([3]; female, human, in vivo, read-out: tissue concentration, Cervix): 237 ng/mL; concentration at 28 days ([3]; female, human, in vivo, read-out: tissue concentration, Endometrium): 237 ng/mL; concentration at 28 days ([3]; female, human, in vivo, read-out: tissue concentration, Rectum): 39.9 ng/mL; concentration at 28 days ([3]; female, human, in vivo, read-out: tissue concentration, Vagina): 253 ng/mL; time to reach 100% release ([1]; 1 wt %, TPU2 matrix): 7 days; cumulative release of encapsulated drug ([1]; 1 wt %, TPU2 matrix, first 24 hours): approximately 50%; cumulative release of encapsulated drug ([1]; 1 wt %, TPU3 matrix, by 30 days / one month): 100%; cumulative release of encapsulated drug ([1]; 1 wt %, TPU3 matrix, first 24 hours): approximately 50%; First-Order: k ([1]; 30 wt % loading, TPU4 matrix): 0.0002, h^−1; Higuchi: kH ([1]; 30 wt % loading, TPU4 matrix): 0.005, %/h^1/2; Predicted T50% ([1]; 30 wt % loading, TPU4 matrix, from best-fit release model): 363 days; cumulative release of encapsulated drug ([1]; 30 wt %, TPU4 matrix, at 30 days): approximately 17%; release rate ([1]; 30 wt %, TPU4 matrix, at study terminus (30 days), per each ⅓ segment of the device): 41.13 µg/day; T50% [4]: 101 days; Average dose [4]: 46.31 µg/day; Total DPV released [4]: 1.30 mg
3 | Cc1cc(C#N)cc(C)c1Oc1nc(Nc2ccc(C#N)cc2)nc(N)c1Br [ETR, etravirine] | 13 days | 0.002, h^−1 | 0.026, %/h^1/2 | 15.5 days | 13 days | 0.002, h^−1 | 0.030, %/h^1/2 | 0.585, | 12 days | 0.0004, h^−1 | 0.011, %/h^1/2 | 0.535, | 90 days | 27.70% | 0.0001, h^−1 | 0.003, %/h^1/2 | 0.599, | 857 days | 8.5% | ~14 µg/day | concentration at 28 days ([3]; female, human, endometrium, other: intrauterine (implanted intrauterine system), read-out: tissue concentration, Endometrium): 434 ng/mL; Mean concentration in vaginal secretions ([3]; in vivo): 344.30 ng/mL; Korsmeyer-Peppas Constant: n ([1]; 1 wt % loading, TPU2 matrix): 0.484,; T50% [4]: 300 days; Average dose [4]: 15.24 µg/day; Total DPV released [4]: 0.43 mg
4 | Nc1nc2c(ncn2COCCO)c(=O)[nH]1 [ACV, acyclovir] |  |  |  |  |  |  |  |  |  |  |  |  |  |  |  |  |  |  |  |  | minimum release rate ([1]; 20 wt % in TPU4 matrix, 15 days in vitro dissolution): 59 µg/day; cumulative release ([1]; 20 wt % in TPU4 matrix, after 15 days): 18%; Predicted T50% ([1]; 20 wt % in TPU4 matrix, best-fit in vitro release model): 156 days; maximum release ([1]; High saturation matrixes): 1112 micrograms per day; minimum release ([1]; High saturation matrixes): 109 micrograms per day
